# Assay results: patent publication US20030102246A1, “Method for improving the stability of stored and/or used light-sensitive therapeutic systems or components thereof” (LTS Lohmann Therapie-Systeme AG, priority 1999, published 2003)
# Tests used:
# [1] = Light stability of lacidipine solution in differently coloured polypropylene vessels exposed to daylight; type: physicochemical; settings: daylight 6 to 8 hours
# Protocol: As a representative of the very light-sensitive 1,4-dihydropyridine derivatives, lacidipine is used. By way of the example of lacidipine it is possible to show the influence the absorption spectrum of a polymer, for instance, one based on polypropylene, has on the stability of the 1,4-dihydropyridine derivative.
# To carry out the experiment, the lacidipine was dissolved in a solvent. Since dissolved lacidipine is very sensitive to electromagnetic-radiation, it was possible to clearly determine the influence of the polymers examined. The lacidipine solution was filled in differently coloured vessels of polypropylene and exposed to daylight for a defined period of time. The vessels in this context served as models for a coloured film. After the vessels had been exposed to a certain radiation (for a time of 6 to 8 hours), the lacidipine content of the samples was determined. On the basis of the known initial concentration and the detected active substance amounts it was possible to make a statement on the protective action of the polymers used.
# The absorption spectrum of lacidipine contains three maxima [238.4 nm; 282.8 nm; 367.4 nm]. These wavelength regions determine the light-sensitivity of the active substance. […] It can thus be concluded that to ensure maximum stability in the present case brown or aluminized polymers should be used.
# [2] = cited from earlier work
Compound,"Amount of active substance after irradiation ([1]; polymer aluminized, lichtundurchlässig)","Amount of active substance after irradiation ([1]; polymer blue, clear, absorption range <325 nm, 500 nm-700 nm)","Amount of active substance after irradiation ([1]; polymer brown, clear, absorption range <500 nm)","Amount of active substance after irradiation ([1]; polymer green, clear, absorption range <325 nm, >800 nm)","Amount of active substance after irradiation ([1]; polymer orange, klar, absorption range 550 nm-750 nm)","Amount of active substance after irradiation ([1]; polymer transparent, clear, absorption range <300 nm)","Amount of active substance after irradiation ([1]; polymer transparent, cloudy, absorption range <300 nm)","Amount of active substance after irradiation ([1]; polymer yellow, clear, absorption range <350 nm, >700 nm)",rate of degradation of the active substance ([2]; with a yellow colourant having its absorption maximum in the range of 400 nm),stabilisation against light ([2]; with light-stability or screening agents absorbing UV-A or UV-B rays)
CCOC(=O)C1=C(C)NC(C)=C(C(=O)OCC)C1c1ccccc1/C=C/C(=O)OC(C)(C)C [lacidipine],99.36 % of initial amount,23.46 % of initial amount,98.93 % of initial amount,12.40 % of initial amount,15.65 % of initial amount,14.79 % of initial amount,21.05 % of initial amount,29.32 % of initial amount,–,–
CC1=C(/C=C/C(C)=C/C=C/C(C)=C/C(=O)O)C(C)(C)CCC1 [vitamine A acid],–,–,–,–,–,–,–,–,substantially reduced,did not yield the desired results
